# Measurements published in patent US20110064773A1, “PHARMACEUTICAL COMPOSITIONS COMPRISING A THYROID HORMON AND THEIR THERAPEUTIC USE” (UNIVERSITE JOSEPH FOURIER, priority 2007, published 2011).
# Entries after “also recorded” stand apart in the source; their conditions may differ.
# Key:
# Format in all cases: in vivo, rat
# liver mitochondria = assay: Rate of liver mitochondrial oxygen consumption (JO2) of treated Wistar rats; conditions: vs placebo
# Description: The major part of the liver and the red part of each quadriceps were rinsed, and chopped into isolation medium (250 mM sucrose, 20 mM Tris-HCl and 1 mM EGTA-Tris, pH 7.4). Nuclei and cell debris were removed by centrifugation at 800 g for 10 min. Mitochondria were then isolated from the supernatant by spinning twice at 8,000 g for 10 minutes. The mitochondrial pellet was resuspended in 0.5 ml of isolation buffer and kept on ice. Mitochondrial protein was measured by the bicinchoninic acid method (Pierce, Rockford, Ill.). The final mitochondrial suspensions were maintained on ice and were used for measurements of oxygen consumption rate.
# The rate of mitochondrial oxygen consumption (JO2) was measured at 30° C. in an incubation chamber with a Clark-type O2 electrode filled with 2 ml of incubation medium (125 mM KCl, 10 mM Pi-Tris, 20 mM Tris-HCl, 0.1 mM EGTA, pH 7.2). All measurements were performed using mitochondria (1.0 or 0.2 mg mitochondrial protein/ml for liver and skeletal muscle) incubated either with various substrates: glutamate/malate (5 mM/2.5 mM) and succinate (5 mM), alone or in combination, palmitoyl carnitine (55 μM) and octanoyl carnitine (100 μM). For each substrate, JO2 was recorded in the presence of the substrate alone (State 2) and following the addition of 1 mM ADP (state 3). Oligomycin (1.25 μg/mg protein) was added to the mitochondrial suspension to determine the non-phosphorylating respiratory rate (state 4). The incubation medium was constantly stirred with a built-in electromagnetic stirrer and bar flea. The efficiency of the mitochondrial oxidative phosphorylation was assessed by the state 3/state 4 ratio which measures the degree of control imposed on oxidation by phosphorylation (respiratory control ratio, RCR).
# Wistar rats = assay: Growth rate (body weight) and food intake of Wistar rats; conditions: for Body mass: 2.5 μg/100 g continuous
# Description: Adult male rat bred in the animal room facilities of Laboratory of Fundamental and Applied Bioenergetics (Wistar strain) or purchased from Charles-River Laboratories, Domaine des oncins, L'ARBRESLE France [(genetically obese normoglycemic (Zucker or Fa/Fa) or diabetic (ZDF)] were caged individually in stainless steel hanging cages and maintained in a 22° C., 50±10% relative humidity and 12 h:12 h light:dark environment. All animals were fed ad libitum with a standard rat chow (Safe A04, Villemoisson, France) and tap water. Body mass and food intake were recorded twice/thrice a week and fresh food was provided at the same time to ensure minimal disturbance to the animals' food behavior.
# Eight-week old rats (300 g±10 g) were anesthetized by simultaneous intraperitoneal injection of diazepam 4 mg/kg and ketamine 100 mg/kg. In order to maintain body temperature during the surgery (10 min), animals were placed on a warm blanket. After interscapular shaving, a small incision of 0.5 cm of the skin allows the subcutaneous implantation of a small pellet (containing rT3 or 3′,3-T2) with a 10-gauge precision trochar. The pellets, manufactured by Innovative Research of America (Sarasota, Fla., USA) are constituted of a biodegradable matrix that effectively and continuously release the active product in the animal.
# […] (reverseT3) or 3-3′ diiodothyronine (3-3′ T2) were used at different doses (5, 0.5, or 0.1 mg/pellet) were implanted in order to provide a continuous and constant drug delivery over 60 days (which represents 25 μg, 2.5 μg or 0.5 μg/day/100 g BW).
# Wistar rats were treated with rT3 hormone by a daily intraperitoneal injection (IP) (25 μg/100 g BW), a daily sub-cutaneous injection (SC) (25 μg/100 g BW), or a per os administration included in the rat food (25 μg/100 g BW). The continuous and constant administration was performed by using a pellet (25 μg/100 g BW).
# However the role of the administration site was further investigated by comparing continuous administration of rT3 by osmotic pump implanted either subcutaneously or intraperitonally with the reference treatment administered by sub-cutaneous pellets. Wistar rats were treated for 21 days with placebo, sub-cutaneous pellet or sub-cutaneous or intraperitoneal osmotic pumps. rT3 was administered continuously (2.5 μg/100 g).
# Wistar rats were treated by a continuous and constant administration of low doses of rT3 by 3 different methods of administration: • a sub-cutaneous pellet, • an osmotic pump placed under the skin, and • an osmotic pump placed in the peritoneal cavity.
# ZDF rats = assay: Glycaemia, insulinaemia and pancreas mass in ZDF diabetic rats
# Description: Rats were genetically obese normoglycemic (Zucker or Fa/Fa), 10-11 week-old diabetic rats (ZDF), genetic non-overweight diabetic (type 2 diabetes) rats (Goto-Kakizaki (GK) model), non-overweight diabetic (type 2 diabetes) rats n0STZ model or normal Wistar rats submitted to an 8-week high-fat high sucrose diet (a model of nutritional induction of insulin resistance).
# The day of the study, after a fasted period overnight (18 h), blood samplings will be taken in awaked rats from the tail vein.
# Insulin levels were determined with commercial kits (Linco Research).
# Glucose and 3-hydroxybutyrate (3-HB) were measured enzymatically and non esterified fatty acid (NEFA) by colorimetric assay (Wako Chemicals).
# ZDF diabetic rats are a good model for studying the anti-diabetic treatments, since these animals develop a major hyperglycaemia during their life due to the combination of moderate obesity and pancreas degeneracy. To date, treatments are ineffective when the hyperglycaemia is established.
# Then ZDF rats were treated with low doses of rT3 for 21 days (2.5 μg/100 g BW/day) and the glycaemia, insulinaemia were measured after 8, 16 and 21 days.
# [1] = high dose 250 μg/kg BW/day, various substrates
structure (smiles),measurement,setting,value
"N[C@@H](Cc1ccc(Oc2cc(I)c(O)c(I)c2)c(I)c1)C(=O)O [rT3, 3′,5′,3-triiodothyronine]","Liver mitochondrial respiratory rate, non-phosphorylating (state 4, oligomycin)",liver mitochondria; [1],much higher as compared to placebo; also recorded: dose-dependent increase
same,"Liver mitochondrial respiratory rate, phosphorylating (state 3, ADP)",liver mitochondria; [1],very significant increased respiratory rate; also recorded: dose-dependent increase
same,"Liver mitochondrial respiratory rate, non-phosphorylating (state 4)",liver mitochondria; low dose 25 μg/kg BW/day,decreased efficiency; also recorded: dose-dependent increase
same,"Liver mitochondrial respiratory rate, phosphorylating (state 3)",liver mitochondria; low dose 25 μg/kg BW/day,higher maximal respiratory capacity; also recorded: dose-dependent increase
same,Body mass,"Wistar rats; osmotic pump in the peritoneal cavity, 21 days",significant reduction
same,Body mass,"Wistar rats; osmotic pump under the skin, 21 days",significant reduction
same,Food intake immediately after the pellet,"Wistar rats; 25 μg/100 g BW pellet, from day 4 until day 7",decrease
same,Influence on the animal mass (rat body weight),"Wistar rats; 25 μg/100 g BW/day, continuous and constant administration (subcutaneous pellet), 8 days",reduce the rat body weight
same,Growth rate (body weight),"Wistar rats; high dose 25 μg/100 g BW, subcutaneous pellet, 21 days, vs placebo",did not show any weight gain; also recorded: reduce the body weight
same,Appetite (food intake),Wistar rats; low dose 2.5 μg/100 g BW,without modifying their appetite
same,Body weight (body mass),"Wistar rats; low dose 2.5 μg/100 g BW, sub-cutaneous pellet, 21 days, vs placebo",reduce the body weight; also recorded: significant reduction
same,Insulin level (blood insulin concentration),"ZDF rats; 2.5 μg/100 g BW/day, up to 21 days, placebo progressively decreases",maintained; also recorded: increasing plasmatic insulin concentration
same,Pancreas mass,"ZDF rats; 2.5 μg/100 g BW/day, vs placebo",increased
same,Glycaemia (blood glucose concentration),"ZDF rats; low dose 2.5 μg/100 g BW/day, 8, 16 and 21 days, vs placebo",large reduction; also recorded: decreasing glucose concentration
